{"source": "patent US6583125B2", "about": "(priority 1992, dated 2003)", "key": {"[1]": {"details": "human, in vivo; cited from earlier work"}, "rats [2]": {"tested_on": "rats", "details": "rat, in vivo"}, "[3]": {"details": "rat, in vivo"}, "rats [4]": {"tested_on": "rats", "details": "rat, in vivo", "remark": "listed apart in the source"}, "[5]": {"details": "rat, in vivo", "remark": "listed apart in the source"}, "rats [6]": {"tested_on": "rats", "details": "rat, in vivo", "remark": "listed apart in the source"}, "[7]": {"details": "male, Charles Rivers CD (Sprague-Dawley)"}}, "note": "Read-outs that look alike come from different tables or passages of the source. *1 amine or outer side, *2 acyl side, *3 side chain or, on linkers, in order; H or OH if unused. Where a SMILES comes first, the peptide text is derived from it. Bridges are numbered along the chain shown (N, C = ends). Roman numbers before positions name the chains, in order. [ ]: non-standard residue; d: D form. Actinocin(9to1) = Cc1c2oc3c(C)ccc(C(=O)[*:1])c3nc-2c(C(=O)[*:2])c(N)c1=O; NMeV = CN[C@H](C(=O)O)C(C)C; Sar = CNCC(=O)O", "data": [{"compound": "CO[C@@H]1[C@H](O)C[C@@H](O[C@@H]2C[C@H](Oc3cc4cc5c(c(O)c4c(O)c3C)C(=O)[C@@H](O[C@H]3C[C@@H](O[C@H]4C[C@@H](O[C@H]6C[C@](C)(O)[C@@H](OC(C)=O)[C@H](C)O6)[C@H](O)[C@@H](C)O4)[C@H](O)[C@@H](C)O3)[C@H]([C@H](OC)C(=O)[C@@H](O)[C@@H](C)O)C5)O[C@H](C)[C@@H]2OC(C)=O)O[C@@H]1C", "note": "[Chromomycin A3]", "values": [{"measurement": "Acute Local tissue Effects (infiltration)", "setting": "[1]", "result": "Sever tissue sloughing"}, {"measurement": "Frequency of Phlebitis", "setting": "[1]", "result": "Frequent"}]}, {"compound": "COc1cccc2c1C(=O)c1c(O)c3c(c(O)c1C2=O)C[C@@](O)(C(=O)CO)C[C@@H]3O[C@H]1C[C@H](N)[C@H](O)[C@H](C)O1", "note": "[Doxorubicin, 10-[(3-amino-2,3,6-tri-deoxy-α-L-lyxo-hexopyransoyl)oxy]-7,8,9,10-tetrahydro-6,8,-11-trihydroxy-8-(hydroxyacetyl)-1-methyoxy-5,12-naphthacenedione]", "values": [{"measurement": "rats with lesions", "setting": "rats [2]; [7]", "result": "all 8"}, {"measurement": "rats with necrotic lesions of the skin", "setting": "rats [2]; [7]", "result": "all 8"}, {"measurement": "effect on body weight", "setting": "[3]", "result": "no adverse effect on body weight"}, {"measurement": "Frequency of Phlebitis", "setting": "[1]", "result": "Frequent"}]}, {"compound": "CC(=O)[C@]1(O)Cc2c(O)c3c(c(O)c2[C@@H](O[C@H]2C[C@H](N)[C@H](O)[C@H](C)O2)C1)C(=O)c1ccccc1C3=O", "note": "[Idarubicin]", "values": [{"measurement": "Frequency of Phlebitis", "setting": "[1]", "result": "Frequent"}]}, {"compound": "CC(=O)O[C@H]1C(=O)[C@@]2(C)[C@H]([C@H](OC(=O)c3ccccc3)[C@]3(O)C[C@H](OC(=O)[C@H](O)[C@@H](NC(=O)c4ccccc4)c4ccccc4)C(C)=C1C3(C)C)[C@]1(OC(C)=O)CO[C@@H]1C[C@@H]2O", "note": "[Taxol CV, Taxol]", "values": [{"measurement": "rats with lesions", "setting": "rats [4]; male, Charles Rivers CD", "result": "all 8"}]}, {"compound": "COc1cc([C@@H]2c3cc4c(cc3[C@@H](O[C@@H]3O[C@@H]5CO[C@@H](c6cccs6)O[C@H]5[C@H](O)[C@H]3O)[C@H]3COC(=O)[C@H]23)OCO4)cc(OC)c1O", "note": "[Tenoposide]", "values": [{"measurement": "Frequency of Phlebitis", "setting": "[1]", "result": "Frequent"}]}, {"compound": "CC[C@]1(O)C[C@H]2CN(CCc3c([nH]c4ccccc34)[C@@](C(=O)OC)(c3cc4c(cc3OC)N(C=O)[C@H]3[C@@](O)(C(=O)OC)[C@H](OC(C)=O)[C@]5(CC)C=CCN6CC[C@]43[C@@H]65)C2)C1", "note": "[Vincristine, 22-Oxoyincaleukoblastine]", "values": [{"measurement": "Frequency of Phlebitis", "setting": "[1]", "result": "Infrequent"}]}, {"compound": "CN(C)/N=N/c1[nH]cnc1C(N)=O", "note": "[dacarbazine]", "values": [{"measurement": "Acute Local tissue Effects (infiltration)", "setting": "[1]", "result": "Pain, mild inflammation,"}, {"measurement": "Frequency of Phlebitis", "setting": "[1]", "result": "Frequent"}]}, {"compound": "Cc1c2oc3c(C)ccc(C(=O)N[C@@H]4C(=O)N[C@H](C(C)C)C(=O)N5CCC[C@H]5C(=O)N(C)CC(=O)N(C)[C@@H](C(C)C)C(=O)O[C@@H]4C)c3nc-2c(C(=O)N[C@@H]2C(=O)N[C@H](C(C)C)C(=O)N3CCC[C@H]3C(=O)N(C)CC(=O)N(C)[C@@H](C(C)C)C(=O)O[C@@H]2C)c(N)c1=O", "note": "[dactinomycin] (I: T[dV]P[Sar][NMeV] / II: T[dV]P[Sar][NMeV]; ester I:1-I:C, II:1-II:C; linker I:N-II:N via Actinocin(9to1))", "values": [{"measurement": "Frequency of Phlebitis", "setting": "[1]", "result": "Frequent"}]}, {"compound": "COc1cccc2c1C(=O)c1c(O)c3c(c(O)c1C2=O)C[C@@](O)(C(C)=O)C[C@@H]3O[C@H]1C[C@H](N)[C@H](O)[C@H](C)O1", "note": "[daunorubicin]", "values": [{"measurement": "Frequency of Phlebitis", "setting": "[1]", "result": "Frequent"}]}, {"compound": "CO[C@@]12[C@H](COC(N)=O)C3=C(C(=O)C(C)=C(N)C3=O)N1C[C@@H]1N[C@@H]12", "note": "[mitomycin-c]", "values": [{"measurement": "rats died", "setting": "[5]; male", "result": "Five of 12"}, {"measurement": "loss of initial body weight", "setting": "[5]", "result": "about 25%"}]}, {"compound": "CN(N=O)C(=O)N[C@@H](C=O)[C@@H](O)[C@H](O)[C@H](O)CO", "note": "[streptozocin]", "values": [{"measurement": "Frequency of Phlebitis", "setting": "[1]", "result": "Infrequent"}]}, {"compound": "hydroxypropyl-β-cyclodextrin [HPCD]", "values": [{"measurement": "lesion size", "setting": "rats [6]", "result": 3.5, "unit": "mm"}, {"measurement": "diameter of the lesion in the one remaining animal", "setting": "rats [2]", "result": 0.3, "unit": "cm"}, {"measurement": "rats with no lesion at any sampling time", "setting": "rats [2]", "result": "7 of 8"}, {"measurement": "effect on body weight", "setting": "[3]", "result": "no effect on body weight"}, {"measurement": "lesions caused", "setting": "rats [4]", "result": "no lesions"}]}]}
